Experimental data published in patent US4119667A, “Haloaniline derivatives as plant growth modifiers” (Rohm and Haas Company, priority 1974, dated 1978).

System: soybean (Var. Clark)
Assay: greenhouse growth regulator test on soybean (Table I)
Type: in vivo
Details: 1/2 lbs/acre foliar spray, two weeks after application
Excerpt: Limited greenhouse experiments shown that there is promotion of lateral bud growth when compounds are applied at higher concentrations and earlier timings and an increase in soybean pod numbers at lower rates applied just prior to or at the flowering stage. […] Three parameters are reported in Table I to indicate the general spectrum of activity for each evaluated compound including the propensity for releasing lateral bud growth in soybeans. These are: (a) plant height measured as percent inhibition relative to the control; (b) the number of lateral buds per plant; and (c) phytotoxic injury on a scale of 0 to 10 (10 being maximum injury). Sampling compounds were evaluated in the greenhouse in a special growth regulator test. Four to five soybean seeds (Var. Clark) were planted in 4-inch pots with a humus-soil mixture. Two weeks after planting, two uniform plants were selected from each pot for treatment. The candidate compounds were dissolved in acetone-water (1:1), and applied as a foliar spray in a carrier volume of 50 gallons per acre, using a moving belt sprayer at a rate of 1/4, 1/2 and 2 lbs/acre. Six plants were used for each treatment. Two weeks after application, the number of laterals per plant, plant injury (0-10 scale; 0 = no effect, 10 = complete kill,) and the height of each plant were recorded. Untreated plants were used as controls.

Compared with `Clc1ccc(N=Cc2ccccc2Cl)cc1Cl` [IX, 3,4-dichloro-N-(2-chlorobenzylidene)aniline], `Clc1ccc(N=Cc2c(Cl)cccc2Cl)cc1Cl` [XII, 3,4-dichloro-N-(2,6-dichlorobenzylidene)aniline] is lower in “No. Laterals per plant” value: 4 for the first, 2 for the second.

Going from `Clc1cc(Cl)cc(N=Cc2ccccc2Cl)c1` [V, 3,5-dichloro-N-(2-chlorobenzylidine)aniline] to `Clc1ccc(C=Nc2cc(Cl)cc(Cl)c2)cc1` [VII, 3,5-dichloro-N-(4-chlorobenzylidene)aniline], the “No. Laterals per plant” value rises from 3 to 4.

Compared with `Cl.Clc1cc(Cl)cc(N=CNc2cc(Cl)cc(Cl)c2)c1` [XX, N,N'-Bis[3,5-dichlorophenyl]formamidine hydrochloride], `Clc1ccc(N=CNc2ccc(Cl)c(Cl)c2)cc1Cl` [XV, n,n'-bis[3,4-dichlorophenyl]formamidine] is lower in “No. Laterals per plant” value: 4 for the first, 2 for the second.

Going from `Clc1ccc(NCNc2ccc(Cl)c(Cl)c2)cc1Cl` [II, n,n'-bis[3,4-dichlorophenyl]methanediamine] to `Clc1cccc(C=Nc2ccc(Cl)c(Cl)c2)c1` [X, 3,4-dichloro-N-(3-chlorobenzylidene)aniline], the “No. Laterals per plant” value rises from 0 to 3.

For `CCOC=Nc1ccc(Cl)c(Cl)c1` [XVII, ethyl N-(3,4-dichlorophenyl)formimidate], the “No. Laterals per plant” value was 0.

Same assay, conditions: 1/2 lbs/acre foliar spray, two weeks after application, relative to control

Compared with `Cl.Clc1cc(Cl)cc(N=CNc2cc(Cl)cc(Cl)c2)c1` [XX, N,N'-Bis[3,5-dichlorophenyl]formamidine hydrochloride], `Clc1ccc(N=CNc2ccc(Cl)c(Cl)c2)cc1Cl` [XV, n,n'-bis[3,4-dichlorophenyl]formamidine] is lower in “Height (% inhib.)” value: 19 % inhib for the first, 15 % inhib for the second.

Same assay, conditions: 1/2 lbs/acre; 0-10 scale; 0 = no effect, 10 = complete kill; two weeks after application

First: Clc1ccc(N=Cc2ccccc2Cl)cc1Cl [IX, 3,4-dichloro-N-(2-chlorobenzylidene)aniline]
Second: Clc1ccc(N=Cc2c(Cl)cccc2Cl)cc1Cl [XII, 3,4-dichloro-N-(2,6-dichlorobenzylidene)aniline]
The “Injury (0-10)” value of the first is lower: 0 for the first, 1 for the second.

`Clc1cc(Cl)cc(N=Cc2ccccc2Cl)c1` [V, 3,5-dichloro-N-(2-chlorobenzylidine)aniline] and `Clc1ccc(C=Nc2cc(Cl)cc(Cl)c2)cc1` [VII, 3,5-dichloro-N-(4-chlorobenzylidene)aniline] are the same in “Injury (0-10)” value: 0 for the first, 0 for the second.

`Cl.Clc1cc(Cl)cc(N=CNc2cc(Cl)cc(Cl)c2)c1` [XX, N,N'-Bis[3,5-dichlorophenyl]formamidine hydrochloride] and `Clc1ccc(N=CNc2ccc(Cl)c(Cl)c2)cc1Cl` [XV, n,n'-bis[3,4-dichlorophenyl]formamidine] are the same in “Injury (0-10)” value: 2 for the first, 2 for the second.

First: Clc1ccc(NCNc2ccc(Cl)c(Cl)c2)cc1Cl [II, n,n'-bis[3,4-dichlorophenyl]methanediamine]
Second: Clc1cccc(C=Nc2ccc(Cl)c(Cl)c2)c1 [X, 3,4-dichloro-N-(3-chlorobenzylidene)aniline]
The “Injury (0-10)” value of the first is higher: 2 for the first, 1 for the second.

In the case of `CCOC=Nc1ccc(Cl)c(Cl)c1` [XVII, ethyl N-(3,4-dichlorophenyl)formimidate], the “Injury (0-10)” value is reported as 1.

Same assay, conditions: 1/4 lbs/acre foliar spray, two weeks after application

First: Clc1ccc(N=Cc2ccccc2Cl)cc1Cl [IX, 3,4-dichloro-N-(2-chlorobenzylidene)aniline]
Second: Clc1ccc(N=Cc2c(Cl)cccc2Cl)cc1Cl [XII, 3,4-dichloro-N-(2,6-dichlorobenzylidene)aniline]
The “No. Laterals per plant” value of the first is lower: 0 for the first, 1 for the second.

`Clc1cc(Cl)cc(N=Cc2ccccc2Cl)c1` [V, 3,5-dichloro-N-(2-chlorobenzylidine)aniline] and `Clc1ccc(C=Nc2cc(Cl)cc(Cl)c2)cc1` [VII, 3,5-dichloro-N-(4-chlorobenzylidene)aniline] are the same in “No. Laterals per plant” value: 2 for the first, 2 for the second.

`Cl.Clc1cc(Cl)cc(N=CNc2cc(Cl)cc(Cl)c2)c1` [XX, N,N'-Bis[3,5-dichlorophenyl]formamidine hydrochloride] and `Clc1ccc(N=CNc2ccc(Cl)c(Cl)c2)cc1Cl` [XV, n,n'-bis[3,4-dichlorophenyl]formamidine] are the same in “No. Laterals per plant” value: 2 for the first, 2 for the second.

Going from `Clc1ccc(NCNc2ccc(Cl)c(Cl)c2)cc1Cl` [II, n,n'-bis[3,4-dichlorophenyl]methanediamine] to `Clc1cccc(C=Nc2ccc(Cl)c(Cl)c2)c1` [X, 3,4-dichloro-N-(3-chlorobenzylidene)aniline], the “No. Laterals per plant” value falls from 2 to 1.

With `CCOC=Nc1ccc(Cl)c(Cl)c1` [XVII, ethyl N-(3,4-dichlorophenyl)formimidate] the “No. Laterals per plant” value was 2.

Same assay, conditions: 1/4 lbs/acre foliar spray, two weeks after application, relative to control

Going from `Cl.Clc1cc(Cl)cc(N=CNc2cc(Cl)cc(Cl)c2)c1` [XX, N,N'-Bis[3,5-dichlorophenyl]formamidine hydrochloride] to `Clc1ccc(N=CNc2ccc(Cl)c(Cl)c2)cc1Cl` [XV, n,n'-bis[3,4-dichlorophenyl]formamidine], the “Height (% inhib.)” value rises from 10 % inhib to 23 % inhib.

Same assay, conditions: 1/4 lbs/acre; 0-10 scale; 0 = no effect, 10 = complete kill; two weeks after application

First: Clc1ccc(N=Cc2ccccc2Cl)cc1Cl [IX, 3,4-dichloro-N-(2-chlorobenzylidene)aniline]
Second: Clc1ccc(N=Cc2c(Cl)cccc2Cl)cc1Cl [XII, 3,4-dichloro-N-(2,6-dichlorobenzylidene)aniline]
The “Injury (0-10)” value of the first is lower: 0 for the first, 1 for the second.

`Clc1cc(Cl)cc(N=Cc2ccccc2Cl)c1` [V, 3,5-dichloro-N-(2-chlorobenzylidine)aniline] and `Clc1ccc(C=Nc2cc(Cl)cc(Cl)c2)cc1` [VII, 3,5-dichloro-N-(4-chlorobenzylidene)aniline] are the same in “Injury (0-10)” value: 0 for the first, 0 for the second.

`Cl.Clc1cc(Cl)cc(N=CNc2cc(Cl)cc(Cl)c2)c1` [XX, N,N'-Bis[3,5-dichlorophenyl]formamidine hydrochloride] and `Clc1ccc(N=CNc2ccc(Cl)c(Cl)c2)cc1Cl` [XV, n,n'-bis[3,4-dichlorophenyl]formamidine] are the same in “Injury (0-10)” value: 2 for the first, 2 for the second.

First: Clc1ccc(NCNc2ccc(Cl)c(Cl)c2)cc1Cl [II, n,n'-bis[3,4-dichlorophenyl]methanediamine]
Second: Clc1cccc(C=Nc2ccc(Cl)c(Cl)c2)c1 [X, 3,4-dichloro-N-(3-chlorobenzylidene)aniline]
The “Injury (0-10)” value of the first is higher: 3 for the first, 0 for the second.

`CCOC=Nc1ccc(Cl)c(Cl)c1` [XVII, ethyl N-(3,4-dichlorophenyl)formimidate] was tested, and the “Injury (0-10)” value was 2.

Same assay, conditions: 2 lbs/acre foliar spray, two weeks after application

Compared with `Clc1ccc(N=Cc2ccccc2Cl)cc1Cl` [IX, 3,4-dichloro-N-(2-chlorobenzylidene)aniline], `Clc1ccc(N=Cc2c(Cl)cccc2Cl)cc1Cl` [XII, 3,4-dichloro-N-(2,6-dichlorobenzylidene)aniline] is higher in “No. Laterals per plant” value: 4 for the first, 6 for the second.

`Clc1cc(Cl)cc(N=Cc2ccccc2Cl)c1` [V, 3,5-dichloro-N-(2-chlorobenzylidine)aniline] and `Clc1ccc(C=Nc2cc(Cl)cc(Cl)c2)cc1` [VII, 3,5-dichloro-N-(4-chlorobenzylidene)aniline] are the same in “No. Laterals per plant” value: 5 for the first, 5 for the second.

Going from `Cl.Clc1cc(Cl)cc(N=CNc2cc(Cl)cc(Cl)c2)c1` [XX, N,N'-Bis[3,5-dichlorophenyl]formamidine hydrochloride] to `Clc1ccc(N=CNc2ccc(Cl)c(Cl)c2)cc1Cl` [XV, n,n'-bis[3,4-dichlorophenyl]formamidine], the “No. Laterals per plant” value falls from 6 to 2.

Compared with `Clc1ccc(NCNc2ccc(Cl)c(Cl)c2)cc1Cl` [II, n,n'-bis[3,4-dichlorophenyl]methanediamine], `Clc1cccc(C=Nc2ccc(Cl)c(Cl)c2)c1` [X, 3,4-dichloro-N-(3-chlorobenzylidene)aniline] is lower in “No. Laterals per plant” value: 5 for the first, 3 for the second.

`CCOC=Nc1ccc(Cl)c(Cl)c1` [XVII, ethyl N-(3,4-dichlorophenyl)formimidate] was tested, and the “No. Laterals per plant” value was 4.

Same assay, conditions: 2 lbs/acre foliar spray, two weeks after application, relative to control

Going from `Cl.Clc1cc(Cl)cc(N=CNc2cc(Cl)cc(Cl)c2)c1` [XX, N,N'-Bis[3,5-dichlorophenyl]formamidine hydrochloride] to `Clc1ccc(N=CNc2ccc(Cl)c(Cl)c2)cc1Cl` [XV, n,n'-bis[3,4-dichlorophenyl]formamidine], the “Height (% inhib.)” value falls from 44 % inhib to 4 % inhib.

Same assay, conditions: 2 lbs/acre; 0-10 scale; 0 = no effect, 10 = complete kill; two weeks after application

First: Clc1ccc(N=Cc2ccccc2Cl)cc1Cl [IX, 3,4-dichloro-N-(2-chlorobenzylidene)aniline]
Second: Clc1ccc(N=Cc2c(Cl)cccc2Cl)cc1Cl [XII, 3,4-dichloro-N-(2,6-dichlorobenzylidene)aniline]
The “Injury (0-10)” value of the first is higher: 2 for the first, 1 for the second.

`Clc1cc(Cl)cc(N=Cc2ccccc2Cl)c1` [V, 3,5-dichloro-N-(2-chlorobenzylidine)aniline] and `Clc1ccc(C=Nc2cc(Cl)cc(Cl)c2)cc1` [VII, 3,5-dichloro-N-(4-chlorobenzylidene)aniline] are the same in “Injury (0-10)” value: 0 for the first, 0 for the second.

Compared with `Cl.Clc1cc(Cl)cc(N=CNc2cc(Cl)cc(Cl)c2)c1` [XX, N,N'-Bis[3,5-dichlorophenyl]formamidine hydrochloride], `Clc1ccc(N=CNc2ccc(Cl)c(Cl)c2)cc1Cl` [XV, n,n'-bis[3,4-dichlorophenyl]formamidine] is higher in “Injury (0-10)” value: 0 for the first, 1 for the second.

Going from `Clc1ccc(NCNc2ccc(Cl)c(Cl)c2)cc1Cl` [II, n,n'-bis[3,4-dichlorophenyl]methanediamine] to `Clc1cccc(C=Nc2ccc(Cl)c(Cl)c2)c1` [X, 3,4-dichloro-N-(3-chlorobenzylidene)aniline], the “Injury (0-10)” value rises from 2 to 3.

With `CCOC=Nc1ccc(Cl)c(Cl)c1` [XVII, ethyl N-(3,4-dichlorophenyl)formimidate] the “Injury (0-10)” value was 6.

Same assay, conditions: Glycine max, foliar, 336 h, 1/2 lbs/acre foliar spray, two weeks after application, relative to control; read-out: Height (% inhib.)

First: Clc1ccc(N=Cc2ccccc2Cl)cc1Cl [IX, 3,4-dichloro-N-(2-chlorobenzylidene)aniline]
Second: Clc1cc(Cl)cc(N=Cc2ccccc2Cl)c1 [V, 3,5-dichloro-N-(2-chlorobenzylidine)aniline]
The pest or weed control of the first is higher: 23% for the first, 8% for the second.

Compared with `Clc1ccc(NCNc2ccc(Cl)c(Cl)c2)cc1Cl` [II, n,n'-bis[3,4-dichlorophenyl]methanediamine], `Clc1cccc(C=Nc2ccc(Cl)c(Cl)c2)c1` [X, 3,4-dichloro-N-(3-chlorobenzylidene)aniline] is lower in pest or weed control: 15% for the first, 14% for the second.

With `Clc1ccc(C=Nc2cc(Cl)cc(Cl)c2)cc1` [VII, 3,5-dichloro-N-(4-chlorobenzylidene)aniline] the pest or weed control was 9%.

Same assay, conditions: Glycine max, foliar, 336 h, 1/4 lbs/acre foliar spray, two weeks after application, relative to control; read-out: Height (% inhib.)

First: Clc1ccc(N=Cc2ccccc2Cl)cc1Cl [IX, 3,4-dichloro-N-(2-chlorobenzylidene)aniline]
Second: Clc1ccc(N=Cc2c(Cl)cccc2Cl)cc1Cl [XII, 3,4-dichloro-N-(2,6-dichlorobenzylidene)aniline]
The pest or weed control of the first is lower: 0% for the first, 5% for the second.

First: Clc1cc(Cl)cc(N=Cc2ccccc2Cl)c1 [V, 3,5-dichloro-N-(2-chlorobenzylidine)aniline]
Second: Clc1cccc(C=Nc2ccc(Cl)c(Cl)c2)c1 [X, 3,4-dichloro-N-(3-chlorobenzylidene)aniline]
The pest or weed control of the first is lower: 1% for the first, 9% for the second.

First: Clc1ccc(NCNc2ccc(Cl)c(Cl)c2)cc1Cl [II, n,n'-bis[3,4-dichlorophenyl]methanediamine]
Second: CCOC=Nc1ccc(Cl)c(Cl)c1 [XVII, ethyl N-(3,4-dichlorophenyl)formimidate]
The pest or weed control of the first is lower: 20% for the first, 24% for the second.

Same assay, conditions: Glycine max, foliar, 336 h, 2 lbs/acre foliar spray, two weeks after application, relative to control; read-out: Height (% inhib.)

Compared with `Clc1ccc(N=Cc2ccccc2Cl)cc1Cl` [IX, 3,4-dichloro-N-(2-chlorobenzylidene)aniline], `Clc1ccc(N=Cc2c(Cl)cccc2Cl)cc1Cl` [XII, 3,4-dichloro-N-(2,6-dichlorobenzylidene)aniline] is higher in pest or weed control at 2241.7 g/ha: 12% for the first, 18% for the second.

`Clc1cc(Cl)cc(N=Cc2ccccc2Cl)c1` [V, 3,5-dichloro-N-(2-chlorobenzylidine)aniline] and `Clc1ccc(C=Nc2cc(Cl)cc(Cl)c2)cc1` [VII, 3,5-dichloro-N-(4-chlorobenzylidene)aniline] are the same in pest or weed control at 2241.7 g/ha: 13% for the first, 13% for the second.

Going from `Clc1ccc(NCNc2ccc(Cl)c(Cl)c2)cc1Cl` [II, n,n'-bis[3,4-dichlorophenyl]methanediamine] to `Clc1cccc(C=Nc2ccc(Cl)c(Cl)c2)c1` [X, 3,4-dichloro-N-(3-chlorobenzylidene)aniline], the pest or weed control at 2241.7 g/ha rises from 7% to 13%.

With `CCOC=Nc1ccc(Cl)c(Cl)c1` [XVII, ethyl N-(3,4-dichlorophenyl)formimidate] the pest or weed control at 2241.7 g/ha was 34%.
